One may read the melting point as the temperature of the solid-liquid transition.

Drawing on a melting point compilation (Tetko et al.; mined from patent text by program, amines drawn as free bases though some values may be those of a salt), this text covers melting point for 85 compounds.

Structures are written as SMILES.

Compound `Nc1nc(-c2ccccc2)c(-c2ccc(=O)n(CC3CC3)n2)s1` had a melting point of 204 to 206 °C.

`CC(=NO)c1ccc2c(c1)CCCN2C(=O)OC(C)(C)C`: the melting point was 127 to 129 °C.

With `Cc1n[nH]c(=O)n1N=Cc1cccnc1`, the melting point was in the range of 208 to 210 °C.

As for `CC1CCN(C(=O)[C@H](CCCCNc2ccccn2)NS(=O)(=O)c2ccc3ccccc3c2)CC1`, the melting point lay within 127 to 129 °C.

With `COC(=O)CNC(=O)c1ccc(C(=O)NS(=O)(=O)c2ccccc2)cn1`, the melting point fell in the range of 125 to 126 °C.

For the compound `Cc1cc(-c2c3ccccc3c(Br)c3sc(C)c(C)c23)cc(C)c1OS(=O)(=O)c1ccc(C(=O)O)c(O)c1`, the melting point was over 225 °C.

In the case of `CC(OC(=O)OC1CC(=O)NC1=O)OC(=O)C(C)C` (stereo not given), the melting point was 50 to 54 °C.

`Cc1nn(CC(F)(F)COCc2ccccc2)c(-c2ccc(F)cc2)c1-c1ccc2c(c1)NC(=O)CO2` gave a melting point of 154 to 155 °C.

Consider `COc1nc(C)cnc1N(C(=O)OCC(C)C)S(=O)(=O)c1cccnc1-c1ccc(O)cc1`, for which the melting point was in the range of 144 to 146 °C.

Regarding `O=C(CCCCC(=O)Oc1ccc(C(=O)OCc2ccccc2)cc1)Oc1ccc(C(=O)OCc2ccccc2)cc1`, the melting point fell in the range of 93 to 93.5 °C.

Take `N#Cc1cn(-c2ccc(C(F)(F)F)cc2)c(=O)n(SC(Cl)(Cl)Cl)c1=O`: the melting point fell in the range of 167 to 168 °C.

In the case of `CCCCCCCCc1sc(NC(=O)c2cc3cc(C)cc(C)c3n2Cc2cccc(C(=O)O)c2)nc1-c1cc(OC)c(Cl)cc1OC`, the melting point is 195 to 197 °C.

`CNc1cc(Oc2ccc3c(c2)OCCN3C(=O)Nc2ccc(C)c(C(F)(F)F)c2)ncn1` came in with a melting point of 180 to 182 °C.

Regarding `CNC(=O)CS(=O)(=O)Nc1c(F)cccc1Oc1nc(OC)cc(OC)n1`, the melting point is 193 to 198 °C.

For `Cc1oc(-c2ccc3ccccc3c2)nc1/C=C/c1ccc(CO)cc1`, the melting point lay in the range of 173 to 174 °C.

For the compound `Cc1ccc(S(N)(=O)=O)cc1NC(=O)c1cnn2c(C(F)(F)F)cc(-c3ccc(C(F)(F)F)cc3)nc12`, the melting point was determined as 310 °C.

For `N#CCCNC(=O)c1cccc(-c2cccc(Oc3ccccc3Cl)n2)c1`, the melting point was in the range of 82 to 83 °C.

As for `CC(N)c1cc(NC(=O)OC(C)(C)C)ccc1NC(=O)OC(C)(C)C` (stereo not given), the melting point came out at 170 °C.

For the compound `CCOc1cc2cc(CO)cc(-c3ccnc(Cl)c3)c2cc1OCC`, the melting point lay in the range of 135 to 137 °C.

For `COc1ccc(C2COC(=O)C2CSC2CCCCC2)cc1` (stereo not given), the melting point is 50 to 51 °C.

The compound `CSC1C(=O)Nc2ccc(Oc3ccc(C(F)(F)F)c(Cl)c3)cc21` (stereo not given) gave a melting point of 174 to 178 °C.

For the compound `CCCOc1cc(OCCC)c2c(C)c(CCCl)c(=O)oc2c1`, the melting point fell in the range of 99 to 101 °C.

`Nc1c(Br)cnn1-c1c(Cl)ccc(Cl)c1Cl`: the melting point is 129 °C.

Compound `CCn1nc(OCC(=O)C(C)(C)C)c(-c2ccc(S(C)(=O)=O)cc2)c1-c1ccc(F)cc1` showed a melting point of 63 to 66 °C.

Turning to `CC(=O)OC1CSC(Oc2ccc(-c3cncc(Cl)c3)nc2)C(OC(C)=O)C1OC(C)=O` (stereo not given), the melting point fell in the range of 203 to 205 °C.

With `COc1ccc2cc(C3CCN(C[C@H](O)COc4cccc5oc(-c6nnc(C)o6)cc45)CC3)ccc2c1`, the melting point lay within 156 to 158 °C.

`O=C(O)C1=CS[C@@H]2/C(=C\c3ccc4nc5n(c4c3)CCS5)C(=O)N12`: the melting point is over 250 °C.

`O=C(Nc1ccc(Br)c2c1C(=O)c1ccccc1C2=O)c1ccccc1` displayed a melting point of 300 °C.

In turn, `CC(C)=CCCOc1c(-c2ccc(S(C)(=O)=O)cc2)cnn(-c2ccc(F)cc2)c1=O` displayed a melting point of 111 to 114 °C.

Regarding `C(=Cc1ccccc1)CN1CCN(C2c3ccccc3Sc3ccccc32)CC1`, the melting point lay within 115 to 117 °C.

`COC(=O)C(=CN(C)C)N(C)c1cc(-c2cccc(OC)c2)ncn1`: the melting point was 172 to 174 °C.

For the compound `O=C(O)c1c[nH]c2cc(Cl)c([N+](=O)[O-])cc2c1=O`, the melting point is 294 to 297 °C.

The compound `O=C1c2ccccc2C(=O)C2(CC3CCCC(C(F)(F)F)C3)OC12` (stereo not given) came in with a melting point of 85 °C.

For `O=[N+]([O-])c1ccc(-c2cc3c(Cl)ncnc3[nH]2)cc1`, the melting point was over 280 °C.

The compound `COc1ccc(N)c(C(=O)Cc2nnnn2C)c1` showed a melting point of 170 to 172 °C.

As to `O=C1c2c(Cl)cccc2-n2cnc(-c3noc(CN(C4CCCCC4)C4CCCCC4)n3)c2[C@@H]2CCN12`, the melting point fell in the range of 155 to 185 °C.

Regarding `CCOC(=O)CN1C(=O)CSC1=Nc1cc(-n2c(=O)cc(C(F)(F)F)n(C)c2=O)c(F)cc1Cl`, the melting point was in the range of 67 to 87 °C.

Compound `Cc1ccc(Oc2ccc(-c3noc(=O)[nH]3)cc2)c(O)c1` yielded a melting point of 195 to 198 °C.

Compound `O=[N+]([O-])c1ccc2nc3c4ccccc4c4ccccc4c3nc2c1` registered a melting point of 253 to 255 °C.

For `O=c1[nH]c2ccccc2n1CCN1CCCCC1`, the melting point lay within 123 to 125 °C.

As to `O=C1COC2(CCN(CCCC(=O)c3ccc(F)cc3)CC2)CN1`, the melting point is 117 to 118 °C.

Compound `CCCN1CCCC1CNC(=O)c1c(OC)ccc(Br)c1OC` (single isomer, unassigned; (-)) displayed a melting point of 103 to 104 °C.

Consider `C=CCc1cc(C=C2SCNC2=O)cc(CC=C)c1O`, for which the melting point fell in the range of 184 to 188 °C.

`CCCCCCCCCCN(O)C(=O)NCCC(=O)OC` registered a melting point of 77 to 78 °C.

`CCOC(=O)C1(C)Cc2cc(Cl)cc([N+](=O)[O-])c2O1` (stereo not given) yielded a melting point of 69 to 72.5 °C.

In turn, `CC(C)(C)c1ccc([C@@H]2C[C@H]3C=C(c4c[nH]c(-c5ccc(F)c(F)c5)c4-c4ccncc4)CCN3C2)cc1` showed a melting point of 218 to 220 °C.

Consider `Cc1c(-c2ccc3c(c2)C(N2Cc4ccccc4C2=O)C(O)C(C)(C)O3)c(=O)c1=O` (stereo not given), for which the melting point was over 250 °C.

As for `Cc1ccccc1NC(=O)N[C@H]1C[C@@](N)(C(=O)O)[C@@H]2[C@@H](C(=O)O)[C@@H]21` (relative stereo), the melting point is over 250 °C.

`O=C(Nc1ccc2c(c1)OCCO2)c1ccc(-c2cccs2)cc1` registered a melting point of 192 to 195 °C.

The compound `C[C@@H](N(CC(=O)O)C(=O)c1ccc(OC(F)(F)F)cc1)[C@](O)(Cn1cncn1)c1ccc(F)cc1F` (relative stereo) had a melting point of 99 to 105 °C.

In turn, `Nc1ccc(C(=O)N2CCC(c3[nH]nc4c3C(=O)c3c(NC(=O)NN5CCOCC5)cccc3-4)CC2)cc1` had a melting point of 198 to 200 °C.

With `O=C(O)c1ccc(C(=O)O)c2c(C(O)=Nc3ccccc3)ccc(C(=O)O)c12`, the melting point was over 300 °C.

In turn, `COc1cc(OC)nc(C2(O)OC(=O)c3c(-c4ccc(Cl)cc4)ccnc32)n1` (stereo not given) displayed a melting point of 228 to 231 °C.

For `CC(C)Nc1ccc(C#Cc2cc(C(=O)Nc3ccc(CN4CCN(C)CC4)c(C(F)(F)F)c3)ccc2Cl)nn1`, the melting point is 133 to 134 °C.

On to `CC(C)(C)OC(=O)N(CC(=O)O)Cc1ccccc1`, for which the melting point lay in the range of 94 to 97 °C.

`CC(C)c1cccc(NC(=N)Nc2cccc(C(C)C)c2)c1` registered a melting point of 118 to 119 °C.

As for `COc1cc2ncc(C#N)c(Nc3ccc(CCO)cc3)c2cc1OC`, the melting point lay within 208 to 210 °C.

Take `COc1cccc2c1C[C@H]1C[C@@H](CN3CCC(O)(c4ccc(Cl)cc4)CC3)CN(C)[C@@H]1C2`: the melting point lay within 202 to 204 °C.

`Cc1cc(C(C)(C)C)c(Cl)c(C)c1SSc1c(C)cc(C(C)(C)C)c(Cl)c1C`: the melting point was 128 to 129 °C.

On to `O=C(C=CCN1CCC(O)(c2ccc(Cl)cc2)CC1)c1ccc(F)cc1`, for which the melting point was 97 to 97.5 °C.

In the case of `CCCCCCCCCCCCC1=C(OC(C)=O)C(=O)c2c(Cl)cccc2C1=O`, the melting point is 57 to 59 °C.

`Cc1ccc(CNC(=O)c2cc(Cl)cc3cc(C)oc23)cc1` registered a melting point of 130 to 132 °C.

`CC1(N)CN(c2c(F)cc3c(=O)c(C(=O)O)cn(-c4ccc(F)cc4)c3c2F)C1` yielded a melting point of 272 to 277 °C.

Regarding `O=C(O)c1ccc2nc3c(c(=O)n2c1)CCCC3=Cc1ccccc1`, the melting point is 261 to 263 °C.

Compound `O=c1ccc(S(=O)(=O)n2cc(Cl)c3ccccc32)n[nH]1` returned a melting point of over 220 °C.

`CCOC1CCC2(C)C(=CCC3C4CCC(=O)C4(C)CCC32)C1` (stereo not given) gave a melting point of 146 to 147 °C.

Take `O=C1c2cc(Cl)ccc2-n2cccc21`: the melting point was found to be 92 °C.

Compound `CN1C(=O)C2(C(=O)N(Cc3ccccn3)c3ccccc32)c2cc3c(cc21)OCCO3` (stereo not given) yielded a melting point of 87 to 89 °C.

`CCOC(=O)c1cn(CC)c2nc(N3CCN(C(C)=O)CC3)ncc2c1=O` displayed a melting point of 208 to 210 °C.

In the case of `CC1(C)NC(=O)CN1C(=O)CNC(=O)CN1CC(O)CC1=O` (stereo not given), the melting point lay in the range of 227 to 229 °C.

Compound `Cc1cc(F)ccc1-c1nc(NC(C)(C)CO)nc2c1ccc(=O)n2-c1ccccc1F` gave a melting point of 106 to 112 °C.

`N#Cc1cccc2c(-c3ccccc3)coc12` yielded a melting point of 143 to 145 °C.

`COc1cccc2c1CN(Cc1c[nH]c3ccccc13)C2` displayed a melting point of 176 to 179 °C.

`O=C(CC(O)=S)c1ccccc1` registered a melting point of 103 to 105 °C.

Regarding `CC(=O)Nc1ccc(OC(F)(F)C(F)F)cc1`, the melting point was in the range of 121 to 122 °C.

On to `C=C(Cc1ccccc1)C(=O)NCC(=O)O`, for which the melting point turned out to be 82 °C.

Take `CN1Cc2c(/C=C\Cl)ncn2-c2ccccc2C1=O`: the melting point fell in the range of 197 to 199 °C.

For `Cc1cc(SCCc2ccc(-c3ccc(C(F)(F)F)cc3)cc2)ccc1OCC(=O)O`, the melting point was in the range of 132 to 134 °C.

Compound `Cc1cc(C)cc(Sc2c(C(C)C)nc(C=NO)n2C)c1` had a melting point of 240 to 241 °C.

The compound `COc1ccc(Nc2nc(N)nc3c2ncn3C2CC(F)C(CO)O2)cc1` (stereo not given) came in with a melting point of 190 to 191 °C.

Regarding `COc1c(Cl)cc(NC(=O)OC(C)(C)C)cc1Cl`, the melting point is 115 to 116 °C.

`CCOC(=O)Cc1nc(-c2ccc(Cl)cc2)oc1OCC` showed a melting point of 144 to 146 °C.

As to `O=C(c1ccc(Cl)cc1)c1cc([N+](=O)[O-])ccc1N1CCC(O)CC1`, the melting point was found to be 142 °C.

In turn, `O=C(O)CCCCCCCCCC=Cc1ccco1` registered a melting point of 38 to 39 °C.

Consider `CCCCCC(CC(=O)Nc1cc(C(N)=O)ccc1C(C)(C)C)c1cc(OC)c(OC)cc1OC` (stereo not given), for which the melting point is 166 to 167 °C.
